Like-named read-outs stand apart in the source and are kept apart here.
Assays:
recombinant PI3 kinase α = recombinant PI3 kinase α (Homo sapiens (Human), UniProt P42336); experiment: Enzyme Inhibition Assay (HTRF PI3K enzyme assay, TR-FRET); format: biochemical
Description: (§1) PI3 kinases catalyse the phosphorylation of phosphatidylinositol 4,5-biphosphate (PIP2) to phosphatidylinositol 3,4,5-triphosphate (PIP3) in the presence of ATP and Mg^2+ ions. The PIP3 product can be detected by displacement of biotin-PIP3 from energy transfer complexes consisting of europium labelled anti-GST monoclonal antibody, a GST-tagged Pleckstrin homology (PH) domain, biotinylated PIP3 and streptavidin-allophycocyanin (APC) by the time-resolved fluorescence resonance energy transfer (TR-FRET) (HTRF® PI3K enzyme assay, Millipore). […] The PIP3 product formed by PI3K activity displaces biotin-PIP3 from the complex and results in a loss of energy transfer (decreasing signal).
(§2) The compound to be tested was added, at the desired final concentrations, to a mixture of PIP2 substrate and recombinant PI3 kinase α, δ or γ enzymes (Millipore), and the mixture incubated for 2 hr at RT. […] A stopping solution containing biotinylated PIP3 and the detection mix containing the GST tagged GRP1 pleckstrin homology (PH) domain and fluorophores were then added and the mixture was incubated at RT for 15-18 hr, prior to detection in a fluorescence microplate reader (Varioskan® Flash, ThermoFisher Scientific).

recombinant PI3 kinase γ = recombinant PI3 kinase γ (Homo sapiens (Human), UniProt P48736); experiment: as above; format: biochemical
Description: as §1, §2

recombinant PI3 kinase δ = recombinant PI3 kinase δ (Homo sapiens (Human), UniProt O00329); experiment: as above; format: biochemical
Description: as §1, §2

[1] = test system: H2O2 induced pAkt in D-U937 cells; experiment: PI3Kδ Cell Based Assay (H2O2 induced pAkt); conditions: Homo sapiens, dU937
Experimental: As a means of assessing PI3K 6 activation in response to stimuli, the phosphorylation status of the protein, Akt, a downstream product of PI3K6, signaling was determined. Human monocytic cells (U937 cells), were differentiated to macrophage-type cells by incubation with phorbol myristate acetate (PMA; 100 ng/mL) for 48 to 72 hr. […] The cells were washed with buffer (PBS containing 0.1% Triton X-100) and were incubated with blocking solution (1% BSA in PBS) for 1 hr and were then re-washed with buffer and incubated overnight with either anti-pAkt antibody or anti-pan-Akt antibody (both from Cell Signaling Technology). […] This reaction was stopped by addition of 100 μL of 1N H2SO4 solution. […] The ratio of pAkt signal to total Akt signal was used to quantitate the extent of PI3K δ activation. […] The IC50 values were calculated from the concentration-response curves generated by the serial dilutions of the test compounds (Table 3 and Table 4).

[2] = test system: PMA-differentiated U937 cells; experiment: MTT Assay (cell viability); format: cell-based, Human; conditions: percentage loss of cell viability; for Cell Viability MTT Assay in D-U937 cells at 4 hr: 4 hr in 5% FCS; for Cell Viability MTT Assay in D-U937 cells at 24 hr: 24 hr in 10% FCS
Experimental: PMA-differentiated U937 cells were pre-incubated with compound for 4 hr in 5% FCS or 10% FCS for 24 hr. The supernatant was replaced with 200 μL of new media and 10 μL of MTT stock solution (5 mg/ml) added to each well. After 1 hr incubation, the media were removed, 200 μL of DMSO added to each well and the plates were shaken lightly for 1 hr prior to reading the absorbance at 550 nm. The percentage loss of cell viability was calculated for each well relative to vehicle (0.5% DMSO)-treatment (Table 3).

[3] = activity range, read-out: PI3 Kinase Inhibition IC50 values at stated Isozyme α
[4] = activity range, read-out: PI3 Kinase Inhibition IC50 values at stated Isozyme γ
[5] = activity range, read-out: PI3 Kinase Inhibition IC50 values at stated Isozyme δ
[6] = activity range, D-U937 cells, read-out: Cellular Activity IC50 values (H2O2 induced pAkt D-U937 Cells)

recombinant PI3 kinase γ, sequence (P48736 whole entry): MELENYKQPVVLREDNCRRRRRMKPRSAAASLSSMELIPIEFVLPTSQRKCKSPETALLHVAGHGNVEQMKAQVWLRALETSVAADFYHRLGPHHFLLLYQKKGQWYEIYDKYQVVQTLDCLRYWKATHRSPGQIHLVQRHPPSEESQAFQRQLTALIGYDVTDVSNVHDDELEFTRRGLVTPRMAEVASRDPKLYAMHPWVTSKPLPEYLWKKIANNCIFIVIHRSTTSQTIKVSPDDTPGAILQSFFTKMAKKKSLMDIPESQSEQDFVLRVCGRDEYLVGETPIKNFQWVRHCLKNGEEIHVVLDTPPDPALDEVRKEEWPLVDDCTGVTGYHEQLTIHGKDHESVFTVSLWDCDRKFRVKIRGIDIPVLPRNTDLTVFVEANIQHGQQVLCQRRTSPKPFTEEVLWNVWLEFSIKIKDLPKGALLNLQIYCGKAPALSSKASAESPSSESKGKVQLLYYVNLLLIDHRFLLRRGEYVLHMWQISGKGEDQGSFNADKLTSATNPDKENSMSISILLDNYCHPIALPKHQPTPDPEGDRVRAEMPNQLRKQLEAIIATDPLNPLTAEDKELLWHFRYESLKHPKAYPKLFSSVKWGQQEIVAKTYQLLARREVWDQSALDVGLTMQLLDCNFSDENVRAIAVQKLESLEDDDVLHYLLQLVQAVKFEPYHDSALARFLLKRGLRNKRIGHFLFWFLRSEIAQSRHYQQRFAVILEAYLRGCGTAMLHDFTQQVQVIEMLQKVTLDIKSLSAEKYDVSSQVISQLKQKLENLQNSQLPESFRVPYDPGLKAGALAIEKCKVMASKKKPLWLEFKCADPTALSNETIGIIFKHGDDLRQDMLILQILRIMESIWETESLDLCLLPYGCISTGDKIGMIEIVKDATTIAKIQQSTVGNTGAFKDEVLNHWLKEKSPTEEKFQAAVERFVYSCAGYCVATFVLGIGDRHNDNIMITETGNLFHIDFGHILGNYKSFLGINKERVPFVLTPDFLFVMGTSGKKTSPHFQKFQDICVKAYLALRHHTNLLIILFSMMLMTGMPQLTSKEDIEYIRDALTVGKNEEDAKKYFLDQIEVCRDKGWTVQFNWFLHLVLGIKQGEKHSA
recombinant PI3 kinase α, sequence (P42336 whole entry): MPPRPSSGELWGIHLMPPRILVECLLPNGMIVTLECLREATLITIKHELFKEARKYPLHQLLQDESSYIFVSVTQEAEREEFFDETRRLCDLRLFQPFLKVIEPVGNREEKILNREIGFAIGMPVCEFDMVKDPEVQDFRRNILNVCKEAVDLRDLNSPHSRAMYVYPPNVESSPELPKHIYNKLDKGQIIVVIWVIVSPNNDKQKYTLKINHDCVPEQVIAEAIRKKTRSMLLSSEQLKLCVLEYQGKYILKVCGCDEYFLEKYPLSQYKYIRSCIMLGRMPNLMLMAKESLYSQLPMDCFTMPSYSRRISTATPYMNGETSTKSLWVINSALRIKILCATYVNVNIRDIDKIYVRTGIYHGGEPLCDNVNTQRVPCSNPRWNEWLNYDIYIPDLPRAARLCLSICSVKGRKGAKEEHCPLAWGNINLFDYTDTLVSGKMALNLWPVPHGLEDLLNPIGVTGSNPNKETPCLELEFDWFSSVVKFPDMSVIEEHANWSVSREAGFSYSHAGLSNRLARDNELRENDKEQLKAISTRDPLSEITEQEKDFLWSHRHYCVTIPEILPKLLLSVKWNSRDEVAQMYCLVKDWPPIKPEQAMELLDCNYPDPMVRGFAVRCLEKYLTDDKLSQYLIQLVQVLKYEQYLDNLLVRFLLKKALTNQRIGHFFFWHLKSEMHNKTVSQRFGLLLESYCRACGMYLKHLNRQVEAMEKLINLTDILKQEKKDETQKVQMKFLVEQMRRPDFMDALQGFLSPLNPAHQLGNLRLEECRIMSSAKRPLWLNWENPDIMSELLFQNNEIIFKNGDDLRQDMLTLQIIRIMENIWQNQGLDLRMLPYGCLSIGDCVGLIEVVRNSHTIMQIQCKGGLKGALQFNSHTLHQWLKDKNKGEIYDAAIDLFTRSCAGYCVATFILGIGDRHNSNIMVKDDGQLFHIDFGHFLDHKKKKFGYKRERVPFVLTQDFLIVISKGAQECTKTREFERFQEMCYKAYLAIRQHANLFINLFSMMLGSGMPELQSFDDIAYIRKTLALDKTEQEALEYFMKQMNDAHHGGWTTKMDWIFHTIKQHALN
recombinant PI3 kinase α, sequence (P27986 whole entry partner): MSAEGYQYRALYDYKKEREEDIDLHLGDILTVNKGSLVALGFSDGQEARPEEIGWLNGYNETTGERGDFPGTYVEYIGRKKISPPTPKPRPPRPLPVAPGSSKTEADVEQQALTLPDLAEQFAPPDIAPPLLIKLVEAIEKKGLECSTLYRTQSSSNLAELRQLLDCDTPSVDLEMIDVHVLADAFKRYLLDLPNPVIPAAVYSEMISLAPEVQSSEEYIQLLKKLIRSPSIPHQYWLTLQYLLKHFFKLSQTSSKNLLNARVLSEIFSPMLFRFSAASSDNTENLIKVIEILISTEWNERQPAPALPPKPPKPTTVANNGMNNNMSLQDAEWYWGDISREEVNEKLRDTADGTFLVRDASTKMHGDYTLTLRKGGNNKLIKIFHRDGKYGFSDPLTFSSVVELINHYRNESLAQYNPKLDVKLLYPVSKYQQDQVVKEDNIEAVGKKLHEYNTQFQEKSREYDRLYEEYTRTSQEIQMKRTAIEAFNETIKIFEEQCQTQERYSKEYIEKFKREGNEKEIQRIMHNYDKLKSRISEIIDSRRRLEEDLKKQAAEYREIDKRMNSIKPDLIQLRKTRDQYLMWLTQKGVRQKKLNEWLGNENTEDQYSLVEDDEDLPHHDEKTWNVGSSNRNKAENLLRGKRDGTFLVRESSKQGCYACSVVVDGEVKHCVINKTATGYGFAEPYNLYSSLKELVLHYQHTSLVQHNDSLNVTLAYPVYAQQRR
recombinant PI3 kinase δ, sequence (O00329 whole entry): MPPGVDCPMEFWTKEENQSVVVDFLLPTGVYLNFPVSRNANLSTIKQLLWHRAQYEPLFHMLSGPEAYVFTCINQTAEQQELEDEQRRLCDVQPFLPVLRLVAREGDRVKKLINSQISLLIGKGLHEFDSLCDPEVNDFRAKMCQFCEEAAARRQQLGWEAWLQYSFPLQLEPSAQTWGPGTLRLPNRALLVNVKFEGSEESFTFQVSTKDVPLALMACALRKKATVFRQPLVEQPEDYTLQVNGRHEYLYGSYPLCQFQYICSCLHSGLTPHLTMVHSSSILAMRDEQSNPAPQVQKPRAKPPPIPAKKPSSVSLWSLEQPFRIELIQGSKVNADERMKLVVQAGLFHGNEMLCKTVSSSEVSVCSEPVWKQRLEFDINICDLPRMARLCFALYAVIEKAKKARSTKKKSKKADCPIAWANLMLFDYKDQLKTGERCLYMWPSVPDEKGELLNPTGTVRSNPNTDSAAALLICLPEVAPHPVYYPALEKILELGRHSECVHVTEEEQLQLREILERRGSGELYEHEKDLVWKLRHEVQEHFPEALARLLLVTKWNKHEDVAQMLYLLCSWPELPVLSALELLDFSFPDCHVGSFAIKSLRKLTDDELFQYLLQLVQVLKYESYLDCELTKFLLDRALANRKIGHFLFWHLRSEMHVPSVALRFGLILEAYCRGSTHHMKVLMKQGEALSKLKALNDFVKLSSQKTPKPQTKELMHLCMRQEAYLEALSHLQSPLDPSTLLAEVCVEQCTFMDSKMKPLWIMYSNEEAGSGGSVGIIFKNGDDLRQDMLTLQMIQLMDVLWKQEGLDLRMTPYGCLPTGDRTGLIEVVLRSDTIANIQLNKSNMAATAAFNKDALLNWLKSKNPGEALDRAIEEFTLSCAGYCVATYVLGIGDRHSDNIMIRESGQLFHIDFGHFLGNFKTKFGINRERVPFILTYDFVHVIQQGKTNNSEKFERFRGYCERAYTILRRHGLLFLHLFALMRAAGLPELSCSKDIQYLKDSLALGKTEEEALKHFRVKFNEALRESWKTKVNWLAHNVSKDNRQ
recombinant PI3 kinase δ, sequence (P27986 whole entry partner): as the sequence (P27986 whole entry partner) above

| Structure (SMILES) | IC50 (recombinant PI3 kinase α; [3]) [nM] | IC50 (recombinant PI3 kinase γ; [4]) [nM] | IC50 (recombinant PI3 kinase δ; [5]) [nM] | IC50 [1, 6] [nM] | Cell Viability MTT Assay in D-U937 cells at 4 hr [2] | Cell Viability MTT Assay in D-U937 cells at 24 hr [2] | IC50 (recombinant PI3 kinase α; read-out: PI3 Kinase Inhibition IC50 values at stated Isozyme (nM) α) [nM] | IC50 (recombinant PI3 kinase γ; read-out: PI3 Kinase Inhibition IC50 values at stated Isozyme (nM) γ) [nM] | IC50 (recombinant PI3 kinase δ; read-out: PI3 Kinase Inhibition IC50 values at stated Isozyme (nM) δ) [nM] | IC50 ([1]; read-out: Cellular Activity IC50 values (H2O2 induced pAkt (nM) D-U937 Cells)) [nM] |
| --- | --- | --- | --- | --- | --- | --- | --- | --- | --- | --- |
| COCC#Cc1cccc2nc(Cn3nc(-c4cccc(O)c4)c4c(N)ncnc43)n(Cc3ccc(Cl)cc3)c(=O)c12 [Example 26, 2-((4-Amino-3-(3-hydroxyphenyl)-1H-pyrazolo[3,4-d]pyrimidin-1-yl)methyl)-3-(4-chlorobenzyl)-5-(3-methoxyprop-1-ynyl)quinazolin-4(3H)-one] | 50 to 1000 | 50 to 1000 | < 50 | < 10 | − (− <30%) | − (− <30%) |  |  |  |  |
| COCC#Cc1cccc2nc(Cn3nc(-c4ccc(O)cc4)c4c(N)ncnc43)n(Cc3cccc(OC)c3)c(=O)c12 [Example 27, 2-((4-Amino-3-(4-hydroxyphenyl)-1H-pyrazolo[3,4-d]pyrimidin-1-yl)methyl)-3-(3-methoxybenzyl)-5-(3-methoxyprop-1-ynyl)quinazolin-4(3H)-one] | 50 to 1000 | 50 to 1000 | < 50 | < 10 | − (− <30%) | − (− <30%) |  |  |  |  |
| COCC#Cc1cccc2nc(Cn3nc(-c4ccc(O)cc4)c4c(N)ncnc43)n(Cc3ccccc3Cl)c(=O)c12 [Example 28, 2-((4-Amino-3-(4-hydroxyphenyl)-1H-pyrazolo[3,4-d]pyrimidin-1-yl)methyl)-3-(2-chlorobenzyl)-5-(3-methoxyprop-1-ynyl)quinazolin-4(3H)-one] | 50 to 1000 | 50 to 1000 | < 50 | < 10 | − (− <30%) | − (− <30%) |  |  |  |  |
| C#Cc1cccc2nc(Cn3nc(-c4ccc(O)cc4)c4c(N)ncnc43)n(Cc3ccc(C(F)(F)F)cc3)c(=O)c12 [Example 29, 2-((4-Amino-3-(4-hydroxyphenyl)-1H-pyrazolo[3,4-d]pyrimidin-1-yl)methyl)-5-ethynyl-3-(4-(trifluoromethyl)benzyl)quinazolin-4(3H)-one] | 50 to 1000 | 50 to 1000 | < 50 | < 10 | − (− <30%) | − (− <30%) |  |  |  |  |
| C#Cc1cccc2nc(Cn3nc(-c4ccc(O)cc4)c4c(N)ncnc43)n(Cc3ccc(Cl)cc3F)c(=O)c12 [Example 35, 2-((4-Amino-3-(4-hydroxyphenyl)-1H-pyrazolo[3,4-d]pyrimidin-1-yl)methyl)-3-(4-chloro-2-fluorobenzyl)-5-ethynylquinazolin-4(3H)-one] | 50 to 1000 | 50 to 1000 | < 50 | < 10 | − (− <30%) | − (− <30%) |  |  |  |  |
| C#Cc1cccc2nc(Cn3nc(-c4ccc(O)c(F)c4)c4c(N)ncnc43)n(Cc3ccccc3Cl)c(=O)c12 [Example 36, 2-((4-Amino-3-(3-fluoro-4-hydroxyphenyl)-1H-pyrazolo[3,4-d]pyrimidin-1-yl)methyl)-3-(2-chlorobenzyl)-5-ethynylquinazolin-4(3H)-one] | 50 to 1000 | > 1000 | < 50 | < 10 | − (− <30%) | − (− <30%) |  |  |  |  |
| COCC#Cc1cccc2nc(Cn3nc(-c4cccc(O)c4)c4c(N)ncnc43)n(Cc3cccc(C(F)(F)F)c3)c(=O)c12 [Example 37, 2-((4-Amino-3-(3-hydroxyphenyl)-1H-pyrazolo[3,4-d]pyrimidin-1-yl)methyl)-5-(3-methoxyprop-1-ynyl)-3-(3-(trifluoromethyl)benzyl)quinazolin-4(3H)-one] | 50 to 1000 | > 1000 | < 50 | < 10 | − (− <30%) | − (− <30%) | 474 | 1610 | 12 | 0.33 |
| Nc1ncnc2c1c(-c1ccc(O)cc1)nn2Cc1nc2cccc(C#CCC3CCCC3)c2c(=O)n1Cc1ccccc1Cl [Example 39, 2-((4-Amino-3-(4-hydroxyphenyl)-1H-pyrazolo[3,4-d]pyrimidin-1-yl)methyl)-3-(2-chlorobenzyl)-5-(3-cyclopentylprop-1-ynyl)quinazolin-4(3H)-one] | < 50 | 50 to 1000 | < 50 | < 10 | − (− <30%) | − (− <30%) |  |  |  |  |
| Nc1ncnc2c1c(-c1ccc(O)cc1)nn2Cc1nc2cccc(C#CCOCc3ccccc3)c2c(=O)n1Cc1ccccc1Cl [Example 40, 2-((4-Amino-3-(4-hydroxyphenyl)-1H-pyrazolo[3,4-d]pyrimidin-1-yl)methyl)-5-(3-(benzyloxy)prop-1-ynyl)-3-(2-chlorobenzyl)quinazolin-4(3H)-one] | 50 to 1000 | 50 to 1000 | < 50 | < 10 | − (− <30%) | − (− <30%) |  |  |  |  |
| Nc1ncnc2c1c(-c1ccc(O)cc1)nn2Cc1nc2cccc(C#CCCCO)c2c(=O)n1Cc1ccccc1Cl [Example 41, 2-((4-Amino-3-(4-hydroxyphenyl)-1H-pyrazolo[3,4-d]pyrimidin-1-yl)methyl)-3-(2-chlorobenzyl)-5-(5-hydroxypent-1-ynyl)quinazolin-4(3H)-one] | 50 to 1000 | 50 to 1000 | < 50 | < 10 | − (− <30%) | − (− <30%) |  |  |  |  |
| C#Cc1cccc2nc(Cn3nc(-c4ccc(O)cc4)c4c(N)ncnc43)n(Cc3cc(OC)ccc3F)c(=O)c12 [Example 42, 2-((4-Amino-3-(4-hydroxyphenyl)-1H-pyrazolo[3,4-d]pyrimidin-1-yl)methyl)-5-ethynyl-3-(2-fluoro-5-methoxybenzyl)quinazolin-4(3H)-one] | 50 to 1000 | 50 to 1000 | < 50 | < 10 | − (− <30%) | − (− <30%) |  |  |  |  |
| C#Cc1cccc2nc(Cn3nc(-c4ccc(O)cc4)c4c(N)ncnc43)n(Cc3ccc(Cl)c(Cl)c3)c(=O)c12 [Example 43, 2-((4-Amino-3-(4-hydroxyphenyl)-1H-pyrazolo[3,4-d]pyrimidin-1-yl)methyl)-3-(3,4-dichlorobenzyl)-5-ethynylquinazolin-4(3H)-one] | 50 to 1000 | 50 to 1000 | < 50 | < 10 | − (− <30%) | − (− <30%) |  |  |  |  |
| C#Cc1cccc2nc(Cn3nc(-c4ccc(O)cc4)c4c(N)ncnc43)n(Cc3ccccc3)c(=O)c12 [Example 44, 2-((4-Amino-3-(4-hydroxyphenyl)-1H-pyrazolo[3,4-d]pyrimidin-1-yl)methyl)-3-benzyl-5-ethynylquinazolin-4(3H)-one] | > 1000 | 50 to 1000 | < 50 | < 10 | − (− <30%) | − (− <30%) |  |  |  |  |
| C#Cc1cccc2nc(Cn3nc(-c4ccc(O)cc4)c4c(N)ncnc43)n(Cc3ccccc3C(F)(F)F)c(=O)c12 [Example 45, 2-((4-Amino-3-(4-hydroxyphenyl)-1H-pyrazolo[3,4-d]pyrimidin-1-yl)methyl)-5-ethynyl-3-(2-trifluoromethylbenzyl)quinazolin-4(3H)-one] | 50 to 1000 | 50 to 1000 | < 50 | < 10 | − (− <30%) | − (− <30%) |  |  |  |  |
